Results published in US6184333A, “Low-toxicity, high-temperature polyimides” (Maverick Corporation, priority 1999, dated 2001).

How the values were obtained:
[1] = cited from earlier work; for Carcinogenicity: animals, where stated; for Toxicity: in vivo
[2] = with and without metabolic activation; cited from earlier work
rat [3] = conditions: cited from earlier work
rat [4] = conditions: cited from earlier work; remark: listed apart in the source
rat [5] = assay: Acute oral LD50; type: in vivo; conditions: vs. MDA
From the text: Except for BAX, the advantages of these diamines include low cost (<$50/pound) as well as low toxicity. […] (ADD IN FNOTE 19) Table I compares the toxicological data of MDA vs. That of Bisaninine-P and Bisaniline-M. In addition, the Ames Mutagenicity Assays for Bisaniline-P and Bisaniline-M were negative with and without metabolic activation. (ID)

rabbit skin = conditions: cited from earlier work
Solubility in methanol = type: physicochemical
From the text: A matrix of polyirnide copolymers was synthesized by using Bisaniline-P, Bisaniline-M, and paraphenylenediamine (PPDA). Partial molar substitutions of PPDA (up to 50 mole percent) were used in order to increase glass transition temperatuer and/or thermal oxidative stability. Pre-polymer molecular weight was also adjusted to favorably impact processing parameters as well as the final Tg. Each copolymer was formulated at a molar ratio of 2 NE: 2 BTDE: 3 Diamine. All of the resin systems were synthesized using standard techniques known in the industry. In some of the BIS-P formulations, n-methylpyrrilidinone (NMP) was used as a solvent in addition to methanol. This was done in order to maintain the solubility of the fairly large molecular-weight BIS-P diamine. […] A detailed description of the low-toxicity polyimnide systems that were developed is shown below in Table IV.

Nc1ccc(N)cc1 [PPDA, para-phenylenediamine]
Carcinogenicity [1]: no carcinogenic activity in animals

CC(C)(c1ccc(Oc2ccc(N)cc2)cc1)c1ccc(Oc2ccc(N)cc2)cc1 [BAPP, 2,2-bis(4-[4-aminophenoxyl]phenyl) propane]
Carcinogenicity [1]: non-carcinogenic
Toxicity [1]: non-toxic

CC(C)(c1ccc(N)cc1)c1ccc(C(C)(C)c2ccc(N)cc2)cc1 [BIS-P, 4,4'-(1,4-phenylene-bis(1-methylethylidene))bisaniline]
Ames Mutagenicity Assay [2]: negative
Acute Oral LD50 (rat [3]): > 5,000 mg/kg
Acute Dermal LD50 (rat [4]): > 2,000 mg/kg
Acute oral LD50 compared with that of MDA (rat [5]): more than ten times higher

Nc1ccc(Cc2ccc(N)cc2)cc1 [MDA, 4,4'-methylenedianiline, reference compound]
Acute Oral LD50 (rat [3]): 347 mg/kg
Carcinogenicity [1]: known animal carcinogen
Human carcinogenicity ([1]; human): suspected human carcinogen
Toxicity [1]: known kidney and liver toxin
Acute Dermal LD50 (rat [4]): 200 mg/kg

CC(C)(c1ccc(N)cc1)c1cccc(C(C)(C)c2ccc(N)cc2)c1 [BIS-M, 4,4'-(1,3-phenylene-bis(1-methylethylidene))bisaniline]
Ames Mutagenicity Assay [2]: negative
Acute Oral LD50 (rat [3]): 6,240 mg/kg
Skin irritation (printed in the Acute Dermal LD50 line) (rabbit skin): Non-irritating
Acute oral LD50 compared with that of MDA (rat [5]): more than ten times higher
Solubility in methanol (Solubility in methanol): readily soluble
